In patent US20220186186A1, “COMPOSITION FOR INDUCING DIRECT CONVERSION OF SOMATIC CELL INTO COMMON MYELOID PROGENITOR AND USE THEREOF” (KOREA INSTITUTE OF SCIENCE AND TECHNOLOGY, priority 2020, published 2022):

System: neonatal fibroblasts (HDF-N)
Assay: Direct conversion of neonatal fibroblasts to CMP cells, marker expression by flow cytometry (FACS)
Assay type: cell-based, human
Method: Human dermal fibroblasts derived from human skin were purchased from ThermoFisher (USA). Human neonatal dermal fibroblasts (HDF-N; neonatal-C0045C) and human adult dermal fibroblasts (HDF-A; adult-C0135C) were purchased, respectively.
To confirm direct conversion potential of fibroblasts to CMP cells, flow cytometry (FACS) analyses were performed. Using the antibodies listed below, expression levels of proteins including the hematopoietic stem cell (HSC) membrane marker CD34, the blood cell membrane marker CD45, and the common myeloid progenitor (CMP) membrane marker CD14, were confirmed. The antibodies used are as follows: • FITC conjugated mouse anti-human CD34 monoclonal antibodies, eBioscience • APC conjugated mouse anti-human CD45 monoclonal antibodies, eBioscience • APC-eFluoro780 conjugated mouse anti-human CD14 monoclonal antibodies, eBioscience
Cells were dissociated into single cells with accutase and then washed with 1% FBS/PBS solution. After treatment with Fc blocker (BD Bioscience) for 10 minutes to prevent non-specific antigen binding, the cells were blocked for 15 minutes using 1% FBS/PBS solution. […] Subsequent to the reaction, the cells were washed twice with cold PBS solution and analyzed by flow cytometry using CytoFLEX by Beckman, and data were analyzed using the CytExpert program. […]

Cc1cccc(-c2n[nH]cc2-c2ccc3ncccc3n2)n1 [Example 3-1, 2-[3-(6-methylpyridin-2-yl)-1H-pyrazol-4-yl]-1,5-naphthyridine]
expression of the blood cell marker CD45 (28 days, inhibitor alone, Table 3 and FIG. 18): increase
CD45-expressing cell (%) compared to negative control group (Cnt) (cultured 28 days in reprogramming media with the chemical composition, Table 3): 6.36%
